Laboratory results: US12649734B2, “Bioavailable protein disulfide isomerase inhibitors” (THE CLEVELAND CLINIC FOUNDATION, priority 2020, dated 2026)

Legend:
[1] = system: BTZ-resistant MM1.S cells; assay: Cell viability assay, BTZ-resistant MM1.S; format: cell-based, human
Procedure: Cells and reagents: MM1.S-luc-BTZ (BTZ®)-resistant cell line was made in our laboratory. Starting with 1 nM concentration, MM1.S-luc cells were treated with BTZ and exposed continuously for 5 days and removed for 2 days before re-exposure to the drug until the growth of the cells mimicked the parental cell line. Incremental increase of the drug was applied until the concentration of 8 nM was reached. […] BTZ was procured from Millennium Pharmaceuticals Inc. All cell lines that are used in this study and their detailed information are shown in table 1 below.
Cell viability assay: Cell viability was measured in 96 well culture plates (2×10^4 cells/well) using CellTiter-Glo® Luminescent Cell Viability Assay (Promega, Madison, WI, USA) according to the manufacturer's protocol.

MM1.S cells = assay: ER stress response and apoptosis markers by immunoblotting; format: cell-based, human; conditions: 3 μM, 4 h
Procedure: FIGS. 6A-6C provide graphs and images showing PDIA1 inhibition by CCF642 analogues induce acute endoplasmic reticulum (ER) stress response and lead to apoptosis. Multiple myeloma cells (MM1.S) were treated with 3 μM of CCF642, -34, -37, -39, -34-A, and Tunicamycin (as a control). The status of ER sensors (XBP-1S, IRE1α oligomerization, and induction of C/EBP homology protein (CHOP)) along with apoptosis markers (cleaved caspase 3 and PARP1) were monitored. (A) MM1.S cells were treated for 4 h with CCF642 and its indicated analogues. (B) MM1.S cells were treated with CCF642-34 in a time course. (C) MM1.S, MM1.S.luc, and BTZ-resistant MM1.S.luc cells were stained with the H2DCFDA ROS detection and then treated with 2.5 μM CCF642-34 up to 4 h.
Immunoblotting: Immunoblotting was performed as described previously (Dallas et al., Blood, 93, 1697-1706 (1999)) using primary antibodies against PDIA1 (Cat #3501), XBP1-S (Cat #12782); IRE1α (Cat #3294), C/EBP homologous protein (CHOP) (Cat #5554), Caspase-3 (Cat #9665), PARP1 (Cat #9542), and GAPDH (Cat #3683) purchased from Cell Signaling Technology, Inc. (Danvers, MA, USA) and used at 1:1000 dilution, unless mentioned otherwise.

[2] = system: myeloma cells (MM1.S, MM1.S.LUC, BTZ-resistant MM1.S.LUC); assay: ROS detection (carboxy-H2DCFDA); format: cell-based, human; conditions: 2.5 μM, peaking between 2-3 h
Procedure: ROS detection: MM1.S, MM1.S.LUC, and BTZ-resistant MM1.S.LUC cells were washed with DPBS and treated with 5 μM carboxy-H2DCFDA (Molecular Probes) for 45 min at 37° C. The cells were then washed 3 times in DPBS and followed by 2.5 μM CCF642-34 treatment up to 4 h. After the incubation, the cells were washed 3 times and the intracellular ROS was quantified (excitation=493 nm; […]) using a BioTek Synergy plate reader (BioTek Instruments, Inc., Winooski, VT, USA).

PDIA1 [3] = target: T1, PDIA1 (Homo sapiens, UniProt P07237); assay: PDIA1 activity assay, di-E-GSSG reduction (fluorescence); format: biochemical; set-up: His6 (6xHN, pET6xHN-N vector) (N); made in house; host or cells: Escherichia coli BL21 (DE3) NiCo; conditions: di-EGGS assay; read-out: inactivation constant, Kinact for PDIA1
T1 sequence (P07237 18-508): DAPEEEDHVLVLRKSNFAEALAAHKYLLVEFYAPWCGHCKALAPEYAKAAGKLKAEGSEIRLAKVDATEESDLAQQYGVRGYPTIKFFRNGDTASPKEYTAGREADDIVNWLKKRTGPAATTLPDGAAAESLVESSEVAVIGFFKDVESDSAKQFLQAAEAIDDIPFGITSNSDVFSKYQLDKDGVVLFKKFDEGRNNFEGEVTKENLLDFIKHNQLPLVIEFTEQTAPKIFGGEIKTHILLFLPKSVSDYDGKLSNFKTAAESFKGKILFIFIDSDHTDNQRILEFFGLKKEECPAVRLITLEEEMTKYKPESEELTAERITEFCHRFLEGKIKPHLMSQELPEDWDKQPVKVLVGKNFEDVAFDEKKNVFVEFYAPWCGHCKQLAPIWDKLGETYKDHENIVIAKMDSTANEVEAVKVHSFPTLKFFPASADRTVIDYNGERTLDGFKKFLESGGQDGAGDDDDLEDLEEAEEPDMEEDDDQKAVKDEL
Procedure: (§1) PDI activity: All PDI activity assays were performed using two different substrates, insulin and di-eosin-diglutathione (di-E-GSSG) as described earlier (Vatolin et al., Ibid) with brief modifications. PDIA1 (1 μM) was incubated for 1 h with varying concentrations of PDIA1 inhibitors 642 or 642-34 (0.1, 03, 1, 5, 10, or 20 μM) in 100 mM sodium phosphate pH 7.0, 2 mM EDTA, and 1% DMSO. Bovine insulin (100 μM) and DTT (1 mM) were added to initiate the reaction. Kinetic readings were taken every minute for 2 h at 650 nm absorbance using a BioTek Synergy plate reader (BioTek Instruments, Inc., Winooski, VT, USA). For highly sensitive fluorescence-based assays, di-E-GSSG as a pseudo substrate was utilized to access the activity of PDIA1. Raturi, A.; Mutus, B., Free. Radic. Biol. Med., 43, 62-70 (2007) Known concentrations of recombinant PDIA1 were mixed with 10 mM GSH and incubated at 37° C. for 30 min in 150 mM K2HPO4/KH2PO4 (pH 7.1) buffer solution. PDI inhibitor was added into the mixture and incubated for an additional 30 min at 37° C. […] Synergy H1 plate reader (BioTek, WI, USA) was used for kinetic analysis using excitation at 518 nm, emission at 545 nm, reads of 0.1 sec/well every minute at 25° C. for 1 h. Baseline fluorescence was determined from di-E-GSSG reactions without PDI and GSH. […]

PDIA1 [4] = target: T1, PDIA1; assay: PDIA1 activity assay, insulin reduction; format: biochemical; set-up: His6 (6xHN, pET6xHN-N vector) (N); made in house; host or cells: Escherichia coli BL21 (DE3) NiCo; conditions: read-out: inactivation constant, Kinact for PDIA1
Procedure: as §1

## NC(CC1CNc2ccccc21)C(=O)NCCCOc1ccc(N2C(=O)/C(=C/c3ccc([N+](=O)[O-])s3)SC2=S)cc1 (centres unmarked) [CCF642-34]
[1]
  sensitivity of BTZ-resistant MM1.S compared to parental BTZ-naive MM1.S: ~2 fold
MM1.S cells
  ER stress response (induction of XBP-1S and CHOP): induced a robust ER stress response
[2]
  increase of reactive oxygen species (ROS): 4-6 fold
PDIA1 [3]
  KI (inactivation): 88 ± 2.8 nM
PDIA1 [4]
  KI (inactivation): 100 ± 8.5 nM
